Values joined by “and” are separate entries in the source; they are usually repeats but may differ in a detail not shown here. Equal values may be shown once. Read-outs that look alike come from different tables or passages of the source.

Consider four compounds from patent US20210145842A1, “NEW THERAPEUTIC USES” (NOVARTIS AG, priority 2018, published 2021).

One data set concerns patients with NSCLC. The settings on record: in vivo; cited from earlier work.
The test system of data set [1] is patients with metastatic NSCLC containing EGFR ex19del or L858R substitution mutations. Conditions: EURTAC; erlotinib 150 mg once daily; cited from earlier work.
In data set [2] the test system is patients. The settings on record: pooled analysis; cited from earlier work.
In data set [3] the test system is patients. The settings on record: human, in vivo; cited from earlier work.
A short description of data set [4]: Distribution of nazartinib to the brain in a preclinical model. The format is in vivo.
In data set [5] the test system is patients with EGFR T790M-mutant NSCLC who were third-generation EGFR TKI naïve. The procedure: Patients were screened for eligibility across six subgroups according to EGFR mutation status and prior therapy, and treated with nazartinib 75-350 mg (capsule or tablet formulation) orally, once daily (QD), on a continuous 28-day dosing schedule. The primary objective of the Phase I part was to determine the maximum tolerated dose and/or recommended Phase II dose (RP2D).
This was a Phase I/II, multicenter, open-label study of nazartinib in patients with locally advanced/metastatic EGFR-mutant NSCLC.
Nazartinib was administered orally, once daily (QD), on a continuous, 28-day cycle dosing schedule. The starting dose for the Phase I part was 75 mg in capsule formulation. Nazartinib in tablet formulation was also introduced during Phase I. Patients were treated across the following QD dose groups: 75 mg, 100 mg, 150 mg, 200 mg, 225 mg, 300 mg, and 350 mg. Initial cohorts consisted of 1-6 patients.
Patients treated with capsule or with tablet at the same dose level were pooled together into a single treatment group for safety and efficacy analyses. The Full Analysis Set (FAS) consists of all patients who received ≥1 dose of the study drug. Efficacy analyses were performed on all patients in the FAS who had baseline and post-baseline tumor assessment data or who had discontinued prior to post-baseline tumor assessment, and excluded patients with tumors that were wild-type at EGFR T790 or who had received prior third-generation EGFR TKIs, unless otherwise noted.
Duration of response (DoR) and PFS were described using the Kaplan-Meier method.

Data set [6] deals with patients with advanced EGFR-mutant NSCLC harbouring activating EGFR L858R and/or ex19del mutations.
Data set [7] deals with EGFR mutant (L858R, ex19del and T790M) cancer models. The settings on record: cited from earlier work.
In data set [8] the test system is patients with EGFR T790M+ NSCLC. Conditions: cited from earlier work; for hazard ratio for PFS: 95% CI.
Data set [9] relates to patients with EGFR mutant NSCLC. The settings on record: cited from earlier work.
[10] abbreviates: Brain metastases absent at baseline, 14 evaluable patients, preliminary data.
Where [11] appears, read: Brain metastases present at baseline, 10 evaluable patients, preliminary data.

For `C#Cc1cccc(Nc2ncnc3cc(OCCOC)c(OCCOC)cc23)c1` [erlotinib], the “PFS obtained following treatment” value with patients with NSCLC is 9.7 months. Besides, the “median PFS as assessed by the investigator” value in data set [1] is listed as 9.7 months. In addition, the ILD occurrence with patients [2] is listed as 1.1%.
As to `COc1cc2ncnc(Nc3ccc(F)c(Cl)c3)c2cc1OCCCN1CCOCC1` [gefitinib], in the data set on patients [3], the “patients who stopped therapy due to an adverse drug reaction” value is listed as “Approximately 3%” and the “patients with a severe adverse drug reaction (grade 3 or 4)” value is recorded as “Approximately 8%”. For the same compound, the “PFS obtained following treatment” value in the data set with patients with NSCLC is 9.5 months.
Consider `Cc1cc(C(=O)Nc2nc3cccc(Cl)c3n2[C@@H]2CCCCN(C(=O)/C=C/CN(C)C)C2)ccn1` [nazartinib, (R,E)-N-(7-chloro-1-(1-(4-(dimethylamino)but-2-enoyl)azepan-3-yl)-1H-benzo [d]imidazol-2-yl)-2-methylisonicotinamide], for which, in data set [4], the “distribution to the brain” value is “minimal”. Further, in data set [5] (75 mg QD, N = 12), the “Among patients who progressed: Both A and B (A: progression in brain, B: outside of brain, at first PD)” value is on record as 1 patients; the “Among patients who progressed: Only A, not B (A: progression in brain, B: outside of brain, at first PD)” value was 1 patients. In addition, in data set [5] (100 mg QD, N = 34), the “Among patients with baseline brain metastasis who progressed: Both A and B (A: progression in brain, B: outside of brain, at first PD)” value is on record as 2 patients; the “Among patients with baseline brain metastasis who progressed: Only A, not B (A: progression in brain, B: outside of brain, at first PD)” value was 1 patients; the “Best response of brain non-target lesions: Absent/normalized” value is given as 1 patients. The ORR in [5] (150 mg QD dose level) worked out at 46%. Further, the “Best response of brain non-target lesions: Absent/normalized” value in data set [5] (150 mg QD, N = 68) stood at 3 patients. Also, in data set [5] (200 mg QD, N = 8), the “Among patients who progressed: Only A, not B (A: progression in brain, B: outside of brain, at first PD)” value is given as 1 patients and the “Among patients who progressed: Only B, not A (A: progression in brain, B: outside of brain, at first PD)” value was found to be 6 patients. In addition, the “HBV reactivation leading to hepatic failure and death” value in data set [5] (225 mg QD) is “one”. Moreover, in [5] (225 mg QD, N = 24), the “Among patients who progressed: Only B, not A (A: progression in brain, B: outside of brain, at first PD)” value amounted to 16 patients; the “Among patients with baseline brain metastasis who progressed: Only A, not B (A: progression in brain, B: outside of brain, at first PD)” value was 1 patients; the “Among patients with baseline brain metastasis who progressed: Only B, not A (A: progression in brain, B: outside of brain, at first PD)” value is 6 patients; the “Best response of brain non-target lesions: Absent/normalized” value is 3 patients. Further, in data set [5] (162 evaluable patients with EGFR T790M-positive tumors naïve to third-generation EGFR TKIs, 95% CI: 43-59), the “best overall response rate across doses” value was 51%. For the same compound, in [5] (All patients, N = 162), the “Among patients with baseline brain metastasis who progressed: Only A, not B (A: progression in brain, B: outside of brain, at first PD)” value is “five”; the “Best response of brain non-target lesions: Absent/normalized” value was 16% and 14%. The “median duration of response” value in data set [5] (across doses, EGFR T790M-positive, third-generation EGFR TKI naïve) is 11.0 months. Moreover, in [5] (across doses, 95% CI: 7.3-11.1), the “median progression-free survival (PFS)” value was determined as 9.1 months. Besides, in data set [5] (human, in vivo), the “most common adverse events” value is “rash, diarrhea, and pruritus”. In addition, the “overall disease control rate (DCR)” value in [5] (patients with EGFR T790M-positive tumors naïve to third-generation EGFR TKIs) was 89% and 87%. For the same compound, in data set [5] (person, EGFR ex19del/T790M NSCLC, numerous small brain metastases at baseline), the “brain metastases at first post-baseline evaluation (single case)” value is on record as “no longer radiologically detectable”. For the same compound, the “duration of overall partial response (single case)” value in data set [5] (person, EGFR ex19del/T790M NSCLC, numerous small brain metastases at baseline, no prior local therapy to the brain) is on record as 11.1 months. For the same compound, in [6] (150 mg once daily), the “6-month duration of response rate (DoR)” value is listed as 91%, the “6-month overall survival rate” value came to 95%, the “6-month progression-free survival rate” value was found to be 83% and the disease control rate was determined as 93%. The “patients who achieved complete response” value in [6] (150 mg once daily, 45 patients) is given as “One”. In addition, in [6] (150 mg once daily, 45 patients, 95% CI 49%-78%), the “ORR per RECIST v1.1 by BICR” value worked out at 64%. Also, in [6] (150 mg once daily, of 45 patients), the “patients who demonstrated a response” value is reported as “Twenty-nine”. Moreover, in data set [6] (setting [10]), the “Best overall response per BIRC: Progressive disease (PD)” value is recorded as 0 patients, the “Disease control rate (CR + PR + SD + NCRNPD) per BIRC” value is reported as 14 patients and the “Overall response rate per BIRC” value turned out to be 11 patients. In addition, in [6] (setting [11]), the “Best overall response per BIRC: Complete response (CR)” value was 0 patients, the “Best overall response per BIRC: Non-CR/non-PD (NCRNPD)” value turned out to be 0 patients, the “Disease control rate (CR + PR + SD + NCRNPD) per BIRC” value is recorded as 9 patients and the “Overall response rate per BIRC” value is on record as 5 patients. Further, the “patients who developed a new brain metastasis on study” value in data set [6] (of the 27 patients without baseline brain metastasis) is “One”. In addition, the “responses ongoing at data cutoff” value in [6] (of the 29 responding patients, cutoff 22 Mar. 2018) was 27 patients. Moreover, in [6] (person, Cycle 5 Day 1 (study day 113), no prior treatment for brain metastases), the “brain post-baseline scan versus baseline by BIRC (single case)” value is recorded as “complete normalization of brain lesion”. For the same compound, the anti-tumor efficacy entry in data set [7] (several xenograft models) was “Dose-dependent anti-tumor efficacy”. Further, the “tolerability, body weight” value in data set [7] (xenograft models, efficacious doses) was “well tolerated with no body weight loss”.
For the compound `C=CC(=O)Nc1cc(Nc2nccc(-c3cn(C)c4ccccc34)n2)c(OC)cc1N(C)CCN(C)C` [osimertinib], the “median duration of response” value in data set [8] (AURA3) is listed as 9.7 month. In addition, the “median PFS” value in data set [8] (osimertinib arm of AURA3) was 10.1 months. In addition, the “hazard ratio for PFS” value in data set [8] (overall population, 0.23-0.41) is 0.30. Besides, in data set [8] (patients with CNS metastases, 0.21-0.49), the “hazard ratio for PFS” value is on record as 0.32. The “PFS obtained following treatment” value in the data set with patients with NSCLC is 10.2 months. In addition, in data set [9] (FLAURA first-line), the “investigator reported median progression-free survival” value is 18.9 months, the “median duration of response” value is reported as 17.2 months and the “objective response rate (ORR)” value is 80%. Besides, in data set [9] (any cause), the “adverse event: diarrhea” value is reported as 58%, the “adverse event: dry skin” value is 36% and the “adverse event: rash or acne” value is reported as 58%. Further, the “AEs of grade 3 or higher” value in data set [9] (in vivo) is reported as 34%. The “survival rate at 18 months” value in data set [9] (interim analysis) is on record as 83%. In addition, in data set [9] (osimertinib vs standard EGFR-TKIs, 95% CI 0.37 to 0.57, P<0.001), the “HR for disease progression or death” value is 0.46. The “hazard ratio for death” value in data set [9] (osimertinib vs standard EGFR-TKIs, 95% CI, 0.45 to 0.88, P=0.007) is 0.63. The “odds ratio for ORR” value in data set [9] (osimertinib vs standard EGFR-TKIs, 95% CI, 0.85 to 1.90, P=0.24) was 1.27.
